From PMC9653409, “Generative deep learning enables the discovery of a potent and selective RIPK1 inhibitor” (Nature Communications, 2022)
“And” between values parts separate entries of the source, which are not always exact repeats. Equal values may be shown once.

Legend:
TNFα-induced SIRS = TNFα-induced SIRS mouse model: H&E histology of organs; type: in vivo, C57BL/6 female mice; conditions: 40 mg/kg i.p.
Protocol: The body temperatures of the mice were continuously monitored until 6 h after TNFα administration. At 6 h after TNFα injection, four mice in each group were killed at random, and the serums, heart, liver, spleen, lung, and kidney tissues were collected for analysis. Mice mortality was continuously monitored until 72 h after TNFα administration.
The heart, liver, spleen, lung, kidney and colon tissues were fixed directly in 4% paraformaldehyde (24 h), embedded in paraffin, and stained with H&E following standard procedures. All images were acquired using a Pannoramic MIDI scanner.

[1] = molecular target: panel of human kinases (kinase named in endpoint) (Homo sapiens, UniProt P42681); assay: Kinase inhibitory activity profiling of RI-962@10 µM (406 kinases, Eurofins); type: biochemical; conditions: 10 µM; read-out: Activity (%), Txk(h)
panel of human kinases (kinase named in endpoint) (Homo sapiens, UniProt P42681), sequence (P42681 whole entry): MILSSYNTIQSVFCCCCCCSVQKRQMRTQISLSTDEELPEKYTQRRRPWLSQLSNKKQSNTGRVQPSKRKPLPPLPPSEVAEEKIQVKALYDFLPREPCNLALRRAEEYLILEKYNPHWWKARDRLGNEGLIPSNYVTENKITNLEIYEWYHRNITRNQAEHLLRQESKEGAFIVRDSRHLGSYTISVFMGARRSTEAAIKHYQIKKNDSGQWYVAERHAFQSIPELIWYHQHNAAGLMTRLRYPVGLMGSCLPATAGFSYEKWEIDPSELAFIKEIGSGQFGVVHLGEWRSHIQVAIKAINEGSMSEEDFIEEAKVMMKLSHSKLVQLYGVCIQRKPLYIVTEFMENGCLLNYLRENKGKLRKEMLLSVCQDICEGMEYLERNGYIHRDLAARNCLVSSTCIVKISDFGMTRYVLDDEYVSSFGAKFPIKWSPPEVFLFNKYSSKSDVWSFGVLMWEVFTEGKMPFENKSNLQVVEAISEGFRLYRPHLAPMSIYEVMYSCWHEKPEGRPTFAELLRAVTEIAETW
Procedure, shortened: (§1)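 Radiometric filter-binding kinase assays: enzyme preincubated 15 min with compound in 8 mM MOPS pH 7.0, 0.2 mM EDTA, 250 μM peptide substrate, 10 mM magnesium acetate, 10 μM [γ-33P]-ATP. Reaction started with Mg/ATP, run 40 min at room temperature, stopped with phosphoric acid; 33P incorporation read by scintillation counting. Other kinases by similar protocols.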

[2] = molecular target: panel of human kinases (kinase named in endpoint) (Homo sapiens, UniProt Q96SB4); assay: as above; type: biochemical; conditions: 10 µM; read-out: Activity (%), SRPK1(h)
panel of human kinases (kinase named in endpoint) (Homo sapiens, UniProt Q96SB4), sequence (Q96SB4 whole entry): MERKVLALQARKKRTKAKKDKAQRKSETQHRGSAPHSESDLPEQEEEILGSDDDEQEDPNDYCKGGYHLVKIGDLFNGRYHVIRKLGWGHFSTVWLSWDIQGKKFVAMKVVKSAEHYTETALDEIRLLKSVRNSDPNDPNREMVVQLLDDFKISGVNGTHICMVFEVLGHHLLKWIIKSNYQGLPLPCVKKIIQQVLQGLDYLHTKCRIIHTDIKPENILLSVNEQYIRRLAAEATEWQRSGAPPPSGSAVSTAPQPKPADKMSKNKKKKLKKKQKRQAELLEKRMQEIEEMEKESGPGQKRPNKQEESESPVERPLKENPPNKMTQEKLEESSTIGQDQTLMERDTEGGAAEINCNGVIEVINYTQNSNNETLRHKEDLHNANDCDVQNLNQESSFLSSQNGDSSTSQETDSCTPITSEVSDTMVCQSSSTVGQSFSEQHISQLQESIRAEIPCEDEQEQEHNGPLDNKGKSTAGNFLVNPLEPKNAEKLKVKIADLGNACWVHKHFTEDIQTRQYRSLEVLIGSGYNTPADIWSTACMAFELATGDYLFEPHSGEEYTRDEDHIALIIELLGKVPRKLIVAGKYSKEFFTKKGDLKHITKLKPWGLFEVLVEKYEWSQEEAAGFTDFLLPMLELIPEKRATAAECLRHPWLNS
Procedure, shortened: as §1

[3] = molecular target: panel of human kinases (kinase named in endpoint) (Homo sapiens, UniProt P54756); assay: as above; type: biochemical; conditions: 10 µM; read-out: Activity (%), EphA5(h)
panel of human kinases (kinase named in endpoint) (Homo sapiens, UniProt P54756), sequence (P54756 25-1037): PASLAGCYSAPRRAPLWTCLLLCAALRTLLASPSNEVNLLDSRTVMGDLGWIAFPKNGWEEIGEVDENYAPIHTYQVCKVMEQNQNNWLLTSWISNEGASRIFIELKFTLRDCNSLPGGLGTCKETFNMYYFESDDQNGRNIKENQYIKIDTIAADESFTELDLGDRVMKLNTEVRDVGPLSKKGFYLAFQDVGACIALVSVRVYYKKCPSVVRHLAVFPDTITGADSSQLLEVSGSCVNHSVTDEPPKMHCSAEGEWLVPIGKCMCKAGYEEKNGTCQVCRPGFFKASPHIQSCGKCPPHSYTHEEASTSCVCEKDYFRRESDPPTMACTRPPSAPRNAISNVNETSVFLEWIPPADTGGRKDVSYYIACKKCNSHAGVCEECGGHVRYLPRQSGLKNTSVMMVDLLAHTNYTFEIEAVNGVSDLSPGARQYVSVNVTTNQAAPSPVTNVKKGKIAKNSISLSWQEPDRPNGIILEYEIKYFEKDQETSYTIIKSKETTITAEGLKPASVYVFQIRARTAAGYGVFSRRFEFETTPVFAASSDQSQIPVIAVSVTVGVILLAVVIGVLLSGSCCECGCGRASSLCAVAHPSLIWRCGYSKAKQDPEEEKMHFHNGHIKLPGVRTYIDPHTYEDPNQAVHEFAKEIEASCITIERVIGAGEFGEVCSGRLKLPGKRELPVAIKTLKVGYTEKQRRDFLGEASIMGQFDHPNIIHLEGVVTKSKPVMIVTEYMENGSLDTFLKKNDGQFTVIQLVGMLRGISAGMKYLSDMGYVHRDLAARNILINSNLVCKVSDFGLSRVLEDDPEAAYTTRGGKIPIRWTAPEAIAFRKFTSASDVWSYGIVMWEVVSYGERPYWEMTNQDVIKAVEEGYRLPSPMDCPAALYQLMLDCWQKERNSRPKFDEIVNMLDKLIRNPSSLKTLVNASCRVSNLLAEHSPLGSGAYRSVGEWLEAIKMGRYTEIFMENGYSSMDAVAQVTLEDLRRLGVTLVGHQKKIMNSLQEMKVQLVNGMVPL
Procedure, shortened: as §1

[4] = molecular target: panel of human kinases (kinase named in endpoint) (Homo sapiens, UniProt P00519, M351T); assay: as above; type: biochemical; conditions: 10 µM; read-out: Activity (%), Abl (M351T)(h)
Procedure, shortened: as §1

[5] = molecular target: panel of human kinases (kinase named in endpoint) (Homo sapiens, UniProt P23443); assay: as above; type: biochemical; conditions: 10 µM; read-out: Activity (%), p70S6K(h)
Procedure, shortened: as §1

[6] = molecular target: panel of human kinases (kinase named in endpoint) (Homo sapiens, UniProt Q8N4C8); assay: as above; type: biochemical; conditions: 10 µM; read-out: Activity (%), MINK(h)
panel of human kinases (kinase named in endpoint) (Homo sapiens, UniProt Q8N4C8), sequence (Q8N4C8 whole entry): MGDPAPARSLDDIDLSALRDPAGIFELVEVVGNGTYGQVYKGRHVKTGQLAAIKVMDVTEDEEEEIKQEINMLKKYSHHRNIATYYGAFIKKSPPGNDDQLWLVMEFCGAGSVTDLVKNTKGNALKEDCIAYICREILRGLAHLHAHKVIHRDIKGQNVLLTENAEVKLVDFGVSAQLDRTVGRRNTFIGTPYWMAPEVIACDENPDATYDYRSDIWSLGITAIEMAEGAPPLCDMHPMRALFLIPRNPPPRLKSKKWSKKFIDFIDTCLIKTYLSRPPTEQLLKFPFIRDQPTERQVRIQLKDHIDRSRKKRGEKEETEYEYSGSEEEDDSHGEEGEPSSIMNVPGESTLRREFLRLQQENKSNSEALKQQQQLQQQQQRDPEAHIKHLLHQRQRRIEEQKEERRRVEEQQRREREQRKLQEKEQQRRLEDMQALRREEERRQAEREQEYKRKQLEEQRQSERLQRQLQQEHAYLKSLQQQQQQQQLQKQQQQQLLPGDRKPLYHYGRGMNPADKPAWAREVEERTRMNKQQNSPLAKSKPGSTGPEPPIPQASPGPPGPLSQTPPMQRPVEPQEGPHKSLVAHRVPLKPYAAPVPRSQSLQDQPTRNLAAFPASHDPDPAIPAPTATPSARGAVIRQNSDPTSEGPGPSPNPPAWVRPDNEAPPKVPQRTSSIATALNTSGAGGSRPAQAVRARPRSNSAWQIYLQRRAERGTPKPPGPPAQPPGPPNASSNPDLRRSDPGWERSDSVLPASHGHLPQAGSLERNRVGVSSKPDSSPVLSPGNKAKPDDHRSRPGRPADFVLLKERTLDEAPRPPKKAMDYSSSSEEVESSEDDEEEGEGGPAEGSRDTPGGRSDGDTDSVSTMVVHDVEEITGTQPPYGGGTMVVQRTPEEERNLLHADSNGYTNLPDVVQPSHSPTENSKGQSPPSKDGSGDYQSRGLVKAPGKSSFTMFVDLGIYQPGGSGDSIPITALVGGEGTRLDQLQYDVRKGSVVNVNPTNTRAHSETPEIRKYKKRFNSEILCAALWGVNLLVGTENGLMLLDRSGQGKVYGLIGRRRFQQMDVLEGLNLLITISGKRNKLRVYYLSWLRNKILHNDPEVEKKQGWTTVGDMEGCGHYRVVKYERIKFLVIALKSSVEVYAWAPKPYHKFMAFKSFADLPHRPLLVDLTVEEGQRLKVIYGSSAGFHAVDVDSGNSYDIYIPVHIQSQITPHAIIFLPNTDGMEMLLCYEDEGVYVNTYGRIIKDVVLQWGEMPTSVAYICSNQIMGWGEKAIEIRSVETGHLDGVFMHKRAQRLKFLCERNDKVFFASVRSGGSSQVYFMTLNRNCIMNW
Procedure, shortened: as §1

[7] = molecular target: panel of human kinases (kinase named in endpoint) (Homo sapiens, UniProt O43318); assay: as above; type: biochemical; conditions: 10 µM; read-out: Activity (%), TAK1(h)
panel of human kinases (kinase named in endpoint) (Homo sapiens, UniProt O43318), sequence (O43318 whole entry): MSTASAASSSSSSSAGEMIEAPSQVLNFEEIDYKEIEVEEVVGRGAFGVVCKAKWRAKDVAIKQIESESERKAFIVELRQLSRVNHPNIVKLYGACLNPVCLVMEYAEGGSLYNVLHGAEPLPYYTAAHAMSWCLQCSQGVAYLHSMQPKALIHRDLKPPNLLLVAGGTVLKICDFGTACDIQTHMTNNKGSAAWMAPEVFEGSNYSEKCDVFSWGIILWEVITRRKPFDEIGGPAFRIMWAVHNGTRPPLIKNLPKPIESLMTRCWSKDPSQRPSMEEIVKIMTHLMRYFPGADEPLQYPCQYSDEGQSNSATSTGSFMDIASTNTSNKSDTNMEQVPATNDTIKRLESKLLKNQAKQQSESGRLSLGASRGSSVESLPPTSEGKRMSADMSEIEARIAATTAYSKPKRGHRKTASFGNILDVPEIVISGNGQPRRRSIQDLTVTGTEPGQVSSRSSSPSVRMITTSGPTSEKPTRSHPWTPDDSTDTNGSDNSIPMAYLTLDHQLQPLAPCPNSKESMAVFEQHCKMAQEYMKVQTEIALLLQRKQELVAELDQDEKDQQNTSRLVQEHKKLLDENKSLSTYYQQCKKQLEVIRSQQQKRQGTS
Procedure, shortened: as §1

[8] = molecular target: panel of human kinases (kinase named in endpoint) (Homo sapiens, UniProt Q8WTQ7); assay: as above; type: biochemical; conditions: 10 µM; read-out: Activity (%), GRK7(h)
Procedure, shortened: as §1

[9] = molecular target: panel of human kinases (kinase named in endpoint) (Homo sapiens, UniProt P07947); assay: as above; type: biochemical; conditions: 10 µM; read-out: Activity (%), Yes(h)
Procedure, shortened: as §1

[10] = molecular target: panel of human kinases (kinase named in endpoint) (Homo sapiens, UniProt Q92630); assay: as above; type: biochemical; conditions: 10 µM; read-out: Activity (%), DYRK2(h)
panel of human kinases (kinase named in endpoint) (Homo sapiens, UniProt Q92630), sequence (Q92630 whole entry): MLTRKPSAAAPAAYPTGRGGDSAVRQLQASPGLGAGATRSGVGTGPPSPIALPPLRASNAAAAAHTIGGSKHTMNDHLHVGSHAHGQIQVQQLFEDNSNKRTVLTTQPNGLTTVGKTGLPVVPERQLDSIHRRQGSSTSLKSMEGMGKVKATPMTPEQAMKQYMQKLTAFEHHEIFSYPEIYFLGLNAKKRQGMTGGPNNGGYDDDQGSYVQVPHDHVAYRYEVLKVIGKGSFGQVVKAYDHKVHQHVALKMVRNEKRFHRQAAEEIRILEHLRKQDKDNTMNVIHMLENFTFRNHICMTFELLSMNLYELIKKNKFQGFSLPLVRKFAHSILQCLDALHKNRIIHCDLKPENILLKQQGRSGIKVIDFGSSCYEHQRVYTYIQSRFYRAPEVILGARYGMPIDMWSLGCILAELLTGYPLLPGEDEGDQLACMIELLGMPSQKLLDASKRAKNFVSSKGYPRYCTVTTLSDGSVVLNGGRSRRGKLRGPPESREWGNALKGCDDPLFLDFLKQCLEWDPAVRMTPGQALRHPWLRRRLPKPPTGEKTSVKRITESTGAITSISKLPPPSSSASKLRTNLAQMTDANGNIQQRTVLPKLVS
Procedure, shortened: as §1

[11] = molecular target: panel of human kinases (kinase named in endpoint) (Homo sapiens, UniProt O15111); assay: as above; type: biochemical; conditions: 10 µM; read-out: Activity (%), IKKα(h)
Procedure, shortened: as §1

[12] = molecular target: panel of human kinases (kinase named in endpoint) (Homo sapiens, UniProt Q96NX5); assay: as above; type: biochemical; conditions: 10 µM; read-out: Activity (%), CaMKIγ(h)
Procedure, shortened: as §1

IL-6 = assay: DSS-induced IBD mouse model: IL-6 in cultured colon supernatant (ELISA); type: in vivo, C57BL/6 female mice
Protocol: DSS (3% w/v) was administered in drinking water ad libitum for 7 d (from day 0 to day 7). DSS solution was replaced three times on day 2, day 4, and day 6. […] Three mice in each group were killed at random on day 7, and distal colon tissues were collected for analysis. The mice weight and survival rate were recorded daily.
In the TNFα-induced SIRS model, at 6 h after TNFα injection, four mice in each group were killed at random, and the serums were collected, the serum concentrations of IL-1β and IL-6 were measured using ELISA kits (Neobioscience Technology) according to manufacturer’s instructions. […] The supernatant was collected by sequential centrifugation at 500 × g for 10 min and 3000 × g for 10 min. The concentrations of cytokines TNFα, IL-6, and IL-1β were measured using ELISA kits (Neobioscience Technology).

J774A.1 cells = assay: TSZ-induced J774A.1 cell necroptosis model (CCK8); type: cell-based; conditions: Mus musculus, J774.A1
Protocol: Cell necroptosis protection assays were performed in 96-well cell culture plates. Cells were plated in each well and cultured at 37 °C overnight. […] The cell survival rate was determined using a CCK8 cell viability assay kit and CLARIOstar (v5.61). […] All experiments were performed at least two times, and each EC50 value was expressed as mean ± standard deviation (SD).

## CC(C)C(=O)Nc1nc2cc(-c3ccc4c(c3)c(C(=O)NC(C)c3ccccc3)cn4C)ccn2n1 (stereo not drawn) [RI-962]
TNFα-induced SIRS
  damage to the liver and kidney (H&E): attenuated damage to the liver and kidney
[1]
  activity at 10 µM: 94%
[2]
  activity at 10 µM: 102%
[3]
  activity at 10 µM: 93%
[4]
  activity at 10 µM: 121%
[5]
  activity at 10 µM: 106%
[6]
  activity at 10 µM: 63%
[7]
  activity at 10 µM: 90%
[8]
  activity at 10 µM: 60%
[9]
  activity at 10 µM: 97%
[10]
  activity at 10 µM: 92%
[11]
  activity at 10 µM: 101%
[12]
  activity at 10 µM: 113%
IL-6; 40 mg/kg i.p., day 7
  content of IL-6 in cultured colonic tissue supernatants: substantially reduced
IL-6; Figure 9i, individual replicates 1-3
  IL-6: 994.1 pg/mL and 876.1 pg/mL and 967.8 pg/mL
J774A.1 cells; 0.000056 μM
  viability at 56 pM: 1.06%
J774A.1 cells; 0.000169 μM
  viability at 0.000169 µM: 1.51%
J774A.1 cells; 0.000508 μM
  viability at 0.000508 µM: 3.42%
J774A.1 cells; 0.001524 μM
  viability at 0.001524 µM: 11.4%
J774A.1 cells; 0.004572 μM
  viability at 0.004572 µM: 24.7%
J774A.1 cells; 0.013717 μM
  viability at 0.013717 µM: 48.7%
J774A.1 cells; 0.041152 μM
  viability at 0.041152 µM: 85.3%
J774A.1 cells; 0.123457 μM
  viability at 0.123457 µM: 88.9%
J774A.1 cells; 0.370370 μM
  viability at 0.37037 µM: 93%
J774A.1 cells; 1.111111 μM
  viability at 1.11111 µM: 98.3%
J774A.1 cells; 3.333333 μM
  viability at 3.33333 µM: 91.5%
J774A.1 cells; J774A.1 treated with TSZ, 24 h
  EC50: 11.4 nM
